Source: patent publication US9790253B2, “OSW-1 analogs and conjugates, and uses thereof” (priority 2011, dated 2017)

How the values were obtained:
ORP4L-myc-his = target: T1, ORP4L-myc-his (Homo sapiens, UniProt Q969R2); test: [3H]-25-hydroxycholesterol charcoal-dextran binding assay with ORP4L-myc-his; conditions: for Ki: read-out: [^3H]-25-OHC K1 (nM) ORP4L-myc-his, competition with 20 nM [3H]-25-OHC, HEK-293T S100 lysate, 4° C., 16 h; for fold lower affinity for ORP4L than for OSBP1: ratio of Ki values
T1 sequence (Q969R2 1-916): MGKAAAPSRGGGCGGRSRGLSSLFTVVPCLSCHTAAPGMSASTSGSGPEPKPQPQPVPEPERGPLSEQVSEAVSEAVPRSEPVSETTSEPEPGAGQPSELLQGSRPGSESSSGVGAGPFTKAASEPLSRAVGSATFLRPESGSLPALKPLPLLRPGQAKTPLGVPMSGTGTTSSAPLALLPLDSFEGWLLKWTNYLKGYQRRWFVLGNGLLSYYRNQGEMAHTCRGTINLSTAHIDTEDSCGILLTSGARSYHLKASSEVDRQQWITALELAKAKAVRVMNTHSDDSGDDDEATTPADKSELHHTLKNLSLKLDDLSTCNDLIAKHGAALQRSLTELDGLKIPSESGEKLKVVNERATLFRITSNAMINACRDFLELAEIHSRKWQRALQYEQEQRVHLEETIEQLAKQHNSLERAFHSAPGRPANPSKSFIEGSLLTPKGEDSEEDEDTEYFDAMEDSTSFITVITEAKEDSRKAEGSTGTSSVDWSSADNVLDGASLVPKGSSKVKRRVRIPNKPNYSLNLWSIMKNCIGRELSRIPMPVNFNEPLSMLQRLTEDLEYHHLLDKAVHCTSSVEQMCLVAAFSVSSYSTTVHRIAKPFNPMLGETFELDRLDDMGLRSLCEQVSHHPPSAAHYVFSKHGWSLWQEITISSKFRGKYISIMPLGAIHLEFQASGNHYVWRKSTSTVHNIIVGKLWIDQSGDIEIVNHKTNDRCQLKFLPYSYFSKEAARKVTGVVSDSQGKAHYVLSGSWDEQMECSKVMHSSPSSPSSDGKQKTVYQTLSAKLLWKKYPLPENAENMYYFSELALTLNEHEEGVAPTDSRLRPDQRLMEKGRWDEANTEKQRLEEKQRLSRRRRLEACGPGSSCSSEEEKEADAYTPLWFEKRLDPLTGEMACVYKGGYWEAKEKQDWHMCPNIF
Experimental: [^3H]-25-Hydroxycholesterol charcoal-dextran binding assay. […] These vectors were transfected into HEK-293T cells using Lipofectamine™2000 (Invitrogen), and 48 h after transfection, on-plate lysis of the transfected cells with the M-Per®/HALT™ with EDTA (ThermoScientific) reagent was performed, followed by ultracentrifugation at 100,000 g. The S100 lysate was diluted to 0.2 mg/mL, aliquoted and stored at −80° C. until use. The HEK-293T OSBP1-, ORP4L- or lacZ-myc-his lysate was incubated with [^3H]-25-hydroxycholesterol at 4° C. for 16 h in 96-well plates. After incubation, charcoal/dextran (C/D) was added to the wells for 30 min of shaking at RT, followed by centrifugation for 15 min at 1900 g to pellet the C/D. The C/D-cleared lysate was added to MicroScint™-20 (PerkinElmer) scintillation fluid, and the remaining protein-bound radiolabel was quantified using a TopCount™ scintillation counter. [^3H]-25-hydroxycholesterol binding curves and competition curves were repeated at least three times.
Lysates were thawed on ice, with brief periods of hand warming. Both the ^3H-25-OHC direct binding assays and the ^3H-25-OHC competition binding assays were set up similarly, with a large stock of binding assay lysate being prepared, then 73.5 μL of the binding assay mixture dispensed using a multi-channel pipettor into “V”-shaped 96-well plates. For the ^3H-25-OHC direct binding assay, 1.5 μL of ^3H-25-OHC and ^3H-25-OHC/40×25-OHC added to the wells in dilutions in 100% ethanol. For the ^3H-25-OHC competition binding assays, ^3H-25-OHC was added to the large stock of binding assay lysate to a final concentration of 20 nM. This ^3H-25-OHC-containing binding lysate was then dispensed using a multi-channel pipettor into the 96-well plates. Then, 1.5 μL of a serial dilution of the inhibitors in either 100% ethanol (25-OHC) or DMSO (the ORPphilins) was added to each well.
The binding lysate used in each well of the 96-well plate consisted of 60 μL of 0.2 mg/mL S100 lysate, 7.5 μL 20% PVA, and 5.6 μL 2M KCl. For ^3H-25-OHC binding curve experiments, 0.4 μL of buffer was then added (total volume per well: 73.5 μL). For the ^3H-25-OHC inhibition competition assays, 0.11 μL of 13.2 μM ^3H-25-OHC and 0.29 μL binding buffer was added for each well (total volume per well: 73.5 μL).
Binding assays were incubated, standing, for 16 h at 4° C. Then 30 μL of the rt C/D solution was multichannel pipetted into new “V’ shaped 96-well plates, and 60 μL of the binding lysate mixture was then added. The plates were briefly, lightly vortexed (˜10 sec), 10 and then rocked at 250 rpm for 30 min at rt. The plates were then centrifuged at 1900 g for 15 min at 4° C. in Microplate Carriers (Sorvall cat. #75006449S) in a Sorvall Legend RT centrifuge. Carefully so as to not disturb the C/D pellet, 30 μL of the supernatant was transferred to 170 μL of Microscint-20 in the OptiPlates. The plates were sealed with the TopSealA-Films, and vigorously vortexed (max speed, >1 min). ^3H-25-OHC detection in the wells was then performed using a TopCount Scintillation detector, counting each well for 2 min. Data was graphed and analyzed using GraphPad PrismS, using non-linear regression to determine KD and K1 values.
Binding experiments were performed at 4° C. for 16 h. Unbound sterol was removed using dextran-coated charcoal, and protein-bound sterol left in the supernatant was quantified by scintillation counting. Ki-values were determined as mean±s.d. from at least three independent experiments.

[1] = test system: HCT-116 p21^−/− cells with OSBP1-targeting shRNA; test: OSBP1 shRNA knockdown/dose-shift experiment; format: cell-based, human; conditions: shOSBP1 vs shNT, 72 h
Source text: FIG. 3A is a series of four bar graphs depicting knockdown/dose-shift experiment in HCT-116 p21^−/− cells stably transfected with either OSBP1-targeting shRNA (shOSBP1) or non-targeting shRNA (shNT). Bars represent s.d. of three or four individual experiments. * P=0.0002 (n=3); ** P=0.0006 (n=4); *** P=0.0003 (n=3) compared to shNT cells (two-tailed students t-test).
To ascertain if the antiproliferative activity of the ORPphilins depended on the levels of OSBP1 and ORP4L in cells, short hairpin RNA (shRNA) knockdown of OSBP1 expression was performed and then its effect on the growth inhibitory activity of 1, 2, and 4a measured. […] Similar results were obtained in HeLa cells. Overexpression of OSBP1-myc-his or ORP4L-myc-his (FIG. 3C) for 48 h desensitized HeLa cells to the antiproliferative activity of 1, 2, or 4a by ˜2-5-fold (FIG. 3D). However, taxol-induced growth inhibition was not affected by overexpression of OSBP1-myc-his or ORP4L-myc-his (FIG. 3D).

[2] = test system: HeLa cells overexpressing OSBP1(M446W)-myc-his; test: Overexpression-viability assay, OSBP1(M446W)-myc-his; format: cell-based; conditions: 48 h
Experimental: Overexpression-viability assays with wild-type and mutant OSBP/ORP4L constructs were carried out by transfecting HeLa cells with the appropriate plasmids using Lipofectamine™ LTX with PLUS™ reagent (Invitrogen) as instructed, and after 8 h of transfection, the cells were re-plated for the cell viability assay, performed as described above. Expression levels were evaluated by immunoblotting at the time of dosing.
For additional support that OSBP1 and ORP4L are targets of the ORPphilins, dominant drug-resistant alleles of these proteins were sought. 15 OSBP1 residues inside and outside the region of the protein previously reported to mediate sterol binding were mutated (FIG. 4C). The growth inhibition induced by the ORPphilins was determined in HeLa cells overexpressing either wild-type or mutant OSBP1-myc-his proteins. Expression of wt OSBP1-myc-his and mutant OSBP1-myc-his were nearly equivalent as measured by western blot.
The same mutant caused a 3.9-fold reduction in the antiproliferative activity of OSW-1 (2) (FIG. 4E2) and a 2.7-fold reduction in the activity of schweinfurthin A (4a) (FIG. 4E3). […] The antiproliferative activity of taxol was unaffected by expression of these two OSBP1 mutant proteins (FIGS. 4E4, 4E8).

Compound	Ki (ORP4L-myc-his) [nM]	sensitization by OSBP1 knockdown (GI50 shift) [1] [fold]	reduction in antiproliferative activity at the GI50 level, OSBP1(M446W) vs wt OSBP1 [2] [fold]	Kd (ORP4L-myc-his; read-out: Kd of [3H]-25-hydroxycholesterol, ORP4L, direct binding) [nM]	fold lower affinity for ORP4L than for OSBP1 (ORP4L-myc-his)	fold lower affinity for ORP4L than for OSBP1 (ORP4L-myc-his; listed as 4a) [fold]
COc1ccc(C(=O)O[C@H]2[C@H](O[C@@H]3[C@@H](OC(C)=O)[C@H](O[C@H]4C[C@H]5[C@@H]6CC=C7C[C@@H](O)CC[C@]7(C)[C@H]6CC[C@]5(C)[C@@]4(O)[C@H](C)C(=O)CCC(C)C)OC[C@@H]3O)OC[C@@H](O)[C@@H]2O)cc1 [OSW-1]	54 ± 11	6	3.9			
C[C@@H]1[C@]2(O[C@H]3C=C4[C@@H]5CC[C@H]6Cc7nc8c(nc7C[C@]6(C)[C@H]5C[C@@H](O)[C@]4(C)[C@]31O)C[C@@H]1CC[C@H]3C4=CC[C@@H]5[C@H](C)[C@@]6(OC[C@]45C(=O)C[C@@H]3[C@@]1(C)C8)OC(C)(C)C[C@H]6O)O[C@](C)(CO)C[C@H]2O [cephalostatin 1, Cephalostatin 1]	78 ± 15	4	18			
C[C@H](CCCC(C)(C)O)[C@H]1CC[C@H]2[C@@H]3CC=C4C[C@@H](O)CC[C@]4(C)[C@H]3CC[C@]12C [Compound 25-OHC, 25-hydroxycholesterol]				54 ± 23		
schweinfurthin A	2600 ± 570	9	2.7		approximately 40 fold	~40
